# According to PMC10539350 (Scientific Reports, 2023):
# Where two headings read alike, the source gives them in different places.
# Key:
# [1] = cited from earlier work
# [2] = cited from earlier work; remark: listed apart in the source
# M. tuberculosis H37Rv [3] = experiment: tuberculostatic activity, broth microdilution MIC (Alamar blue); format: cell-based, Mycobacterium tuberculosis; conditions: for MIC: Mycobacterium tuberculosis, 504 h, M. tuberculosis H37Rv, read-out: Minimal inhibitory concentration; for activity in words: toward standard and susceptible strains
# [4] = test system: M. tuberculosis SIR Ciprofloxacin susceptible 168/22; experiment: as above; format: cell-based, Mycobacterium tuberculosis; conditions: for MIC: Mycobacterium tuberculosis, read-out: Minimal inhibitory concentration; for activity in words: susceptible bacteria
# [5] = IAM-HPLC affinity to phospholipids (CHI protocol); format: physicochemical; conditions: for log kIAM: 0.045*CHIIAM+0.42; for CHIIAM: IAM column, pH 7.4, ACN gradient
# physchem = format: physicochemical; conditions: for CHIC18: C18 column, pH 7.4, ACN gradient; for chromatographic logD: pH 7.4
# Excerpt: For HPLC analyses Prominence-1 LC-2030C 3D HPLC system (Shimadzu, Japan) equipped with a DAD detector and controlled by LabSolution system (version 5.90 Shimadzu, Japan) was used. Two different chromatography columns packed with surface-modified silica were utilized in this study: • Octyldecylsilane (C18 Hypersil GOLD™; 50 mm × 4.6 mm; 5.0 µm; Thermo Scientific, USA) • Immobilized artificial membrane (IAM.PC.DD2; 10 × 4.6 mm × 10.0 µm; Regis Technologies; USA).
# Both columns were equipped with guard precolumn containing the same silica-modified bed as the main column. All measurements were carried out using the protocol proposed by Valko[19] and co-workers and adopted in our laboratory. Briefly, methods developed by Valko offered the determination of Chromatographic Hydrophobicity Index (CHI) indices using one gradient elution experiment. Ammonium acetate buffer (50 mM, pH 7.4) and acetonitrile (ACN) were used as the mobile phase at a 1.5 mL/min flow rate. The gradient range varies depending on the column type: • For C18 starting from 2 to 98% ACN in 5.25 min. The maximum concentration of ACN was applied for 1.75 min. • For IAM starting from 0 to 85% ACN in 5.25 min. The maximum concentration of ACN was used for 0.5 min.
# During the chromatographic separation, the temperature was stable at 30 °C. […] The injected volume was 10 μL, whereas the concentration of solutes was at level 100 μg/mL. All studied compounds were dissolved in DMSO. Each chromatographic experiments run in triplicate. […] Retention times for studied molecules and reference standards are collected in supplementary materials, Tables S1, S2 and S3, respectively.
# Next, the CHIC18 values were converted into lipophilicity indices CHI log D using Eq. […]
# [6] = test system: Mycobacterium tuberculosis strains (H37Rv, 22/22, 168/22); experiment: synergism-antagonism evaluation, summary over all strains; format: cell-based
# [7] = test system: human colon cancer cells (HCT-116); conditions: cited from earlier work
# [8] = test system: human immortal keratinocyte cell line (HaCaT); conditions: cited from earlier work
# M. tuberculosis H37Rv [9] = format: cell-based, Mycobacterium tuberculosis; conditions: derivative 6 at 1/2 MIC
# [10] = calibration set on the IAM column, CHI index, Table S3 ref 19
# [11] = calibration set on the C18 column, literature CHI index, Table S2 ref 19
# [12] = determined in an earlier study ref 15
# [13] = 21 days 37 °C, Middlebrook 7H9 + OADC
Structure (SMILES),MIC (M. tuberculosis H37Rv [3]; [13]) [µg/mL],MIC [4] [µg/mL],log kIAM [5],CHIIAM [5],CHIC18 (physchem),chromatographic logD (physchem),other results
CC(=O)Nc1ccccc1 [Acetanilidine],,,,,,,"CHIIAM [1, 10]: 11.5"
CC(=O)c1ccccc1 [Acetophenone],,,,,,,"CHIIAM [1, 10]: 17.2; CHIC18 [2, 11]: 65,1"
c1ccc2[nH]cnc2c1 [Benzimidazole],,,,,,,"CHIC18 [2, 11]: 34,3"
CCCC(=O)c1ccccc1 [Butyrophenone],,,,,,,"CHIIAM [1, 10]: 32; CHIC18 [2, 11]: 87,5"
"O=C(O)c1cn(C2CC2)c2cc(N3CCNCC3)c(F)cc2c1=O [Ciprofloxacin, reference compound]",,,,,,,"CHIIAM [1, 12]: 19.70; log kIAM [1, 12]: 1.31; CHIC18 [2, 12]: 35.61"
CC1CCC(C(C)C)C(OCC(=O)N2CCN(c3cc4c(cc3F)c(=O)c(C(=O)O)cn4C3CC3)CC2)C1 (stereo not drawn) [Compound 1],32,256,2.47,45.54,112.24,4.43,activity in words (M. tuberculosis H37Rv [3]): not active
CC1CCC(C(C)C)C(OC(=O)CN2CCN(c3cc4c(cc3F)c(=O)c(C(=O)O)cn4C3CC3)CC2)C1 (stereo not drawn) [Compound 2],0.5,2,2.53,46.88,127.44,5.22,
CC1CCC(C(C)C)C(OC(=O)CCN2CCN(c3cc4c(cc3F)c(=O)c(C(=O)O)cn4C3CC3)CC2)C1 (stereo not drawn) [Compound 3],2,2,2.65,49.56,129.99,5.36,
CC1CCC(C(C)C)C(OC(=O)CCCN2CCN(c3cc4c(cc3F)c(=O)c(C(=O)O)cn4C3CC3)CC2)C1 (stereo not drawn) [Compound 4],0.5,0.5,2.82,53.32,132.45,5.49,
CC1CCC(C(C)C)C(OC(=O)CCCCN2CCN(c3cc4c(cc3F)c(=O)c(C(=O)O)cn4C3CC3)CC2)C1 (stereo not drawn) [Compound 5],4,4,2.62,48.95,134.85,5.61,
"CC(C)[C@@H]1CC[C@@H](C)C[C@H]1OC(=O)CCCCCN1CCN(c2cc3c(cc2F)c(=O)c(C(=O)O)cn3C2CC2)CC1 [Compound 6, 1‐cyclopropyl‐6‐fluoro‐7‐{4‐[6‐((1R,2S,5R)‐2‐isopropyl‐5‐methylcyclohexyloxy)‐6‐oxohexyl]piperazin‐1‐yl}‐4‐oxo‐1,4‐dihydroquinoline‐3‐carboxylic acid]",1,1,2.74,51.47,139.48,5.86,"FICI values, derivative 6 with Linezolid [6]: 1.0; interaction type from FICI [6]: indifference (key: synergism (FICI ≤ 0.5); indifference (> 0.5 FICI ≤ 4); antagonism (FICI > 4)); IC50 ([7]; HCT-116, MTT assay ref 10): 29.5 ± 2.1 µM; selectivity index ([7]; HCT-116 versus HaCaT ref 10): 3.4; cytotoxic effect [8]: no cytotoxic effect"
CC1CCC(C(C)C)C(OC(=O)CCCCOC(=O)c2cn(C3CC3)c3cc(N4CCN(CCCCC(=O)OC5CC(C)CCC5C(C)C)CC4)c(F)cc3c2=O)C1 (stereo not drawn) [Compound 7],,256,2.92,55.54,170.54,7.49,MIC (M. tuberculosis H37Rv [3]; […]): 256 µg/mL; activity in words (M. tuberculosis H37Rv [3]): not active
CC1CCC(C(C)C)C(OC(=O)CCCCCOC(=O)c2cn(C3CC3)c3cc(N4CCN(CCCCCC(=O)OC5CC(C)CCC5C(C)C)CC4)c(F)cc3c2=O)C1 (stereo not drawn) [Compound 8],4,4,3.02,57.85,179.66,7.97,
Cc1ccc(C(C)C)c(OCC(=O)N2CCN(c3cc4c(cc3F)c(=O)c(C(=O)O)cn4C3CC3)CC2)c1 [Compound 9],256,256,2.38,43.58,129.41,5.33,activity in words (M. tuberculosis H37Rv [3]): not active
Cc1ccc(C(C)C)c(OC(=O)CN2CCN(c3cc4c(cc3F)c(=O)c(C(=O)O)cn4C3CC3)CC2)c1 [Compound 10],1,1,,42.88,111.26,4.37,
Cc1ccc(C(C)C)c(OC(=O)CCN2CCN(c3cc4c(cc3F)c(=O)c(C(=O)O)cn4C3CC3)CC2)c1 [Compound 11],1,1,2.42,44.44,113.95,4.52,
Cc1ccc(C(C)C)c(OC(=O)CCCN2CCN(c3cc4c(cc3F)c(=O)c(C(=O)O)cn4C3CC3)CC2)c1 [Compound 12],0.5,0.5,2.48,45.75,115.60,4.6,

Structure (SMILES),MIC (M. tuberculosis H37Rv [3]; [13]) [µg/mL],MIC [4] [µg/mL],log kIAM [5],CHIIAM [5],CHIC18 (physchem),chromatographic logD (physchem),other results
Cc1ccc(C(C)C)c(OC(=O)CCCCN2CCN(c3cc4c(cc3F)c(=O)c(C(=O)O)cn4C3CC3)CC2)c1 [Compound 13],2,2,2.53,46.96,117.28,4.69,
Cc1ccc(C(C)C)c(OC(=O)CCCCCN2CCN(c3cc4c(cc3F)c(=O)c(C(=O)O)cn4C3CC3)CC2)c1 [Compound 14],0.5,0.5,2.68,50.29,121.48,4.91,
Cc1ccc(C(C)C)c(OC(=O)CCCOC(=O)c2cn(C3CC3)c3cc(N4CCN(CCCC(=O)Oc5cc(C)ccc5C(C)C)CC4)c(F)cc3c2=O)c1 [Compound 15],64,64,2.47,45.54,135.98,5.67,activity in words (M. tuberculosis H37Rv [3]): not active
Cc1ccc(C(C)C)c(OC(=O)CCCCCOC(=O)c2cn(C3CC3)c3cc(N4CCN(CCCCCC(=O)Oc5cc(C)ccc5C(C)C)CC4)c(F)cc3c2=O)c1 [Compound 16],4,4,2.64,49.33,144.84,6.14,
"CC[C@@H](CO)NCCN[C@@H](CC)CO [Ethambutol, reference compound]",0.25,0.5,,,,,
CCCCCCC(=O)c1ccccc1 [Heptanophenone],,,,,,,"CHIIAM [1, 10]: 45.7"
CCCCCC(=O)c1ccccc1 [Hexanophenone],,,,,,,"CHIIAM [1, 10]: 41.8"
"NNC(=O)c1ccncc1 [Isoniazid, reference compound]",0.0625,0.5,,,,,
"CC(=O)NC[C@H]1CN(c2ccc(N3CCOCC3)c(F)c2)C(=O)O1 [Linezolid, reference compound]",0.003,0.007,,,,,MIC for reference drug in the presence of derivative 6 (M. tuberculosis H37Rv [9]): 0.0015 µg/mL
CCCCCCCC(=O)c1ccccc1 [Octanophenone],,,,,,,"CHIIAM [1, 10]: 49.4"
CC(=O)Nc1ccc(O)cc1 [Paracetamol],,,,,,,"CHIIAM [1, 10]: 2.9"
CCC(=O)c1ccccc1 [Propiophenone],,,,,,,"CHIIAM [1, 10]: 25.9; CHIC18 [2, 11]: 77,5"
"CO[C@H]1/C=C/O[C@@]2(C)Oc3c(C)c(O)c4c(O)c(c(/C=N/N5CCN(C)CC5)c(O)c4c3C2=O)NC(=O)/C(C)=C\C=C\[C@H](C)[C@H](O)[C@@H](C)[C@@H](O)[C@@H](C)[C@H](OC(C)=O)[C@@H]1C [Rifampicin, reference compound]",0.5,64,,,,,activity in words [4]: poor activity
"[H]/N=C(/N)N[C@H]1[C@H](O)[C@@H](O)[C@H](O[C@@H]2O[C@@H](C)[C@](O)(C=O)[C@H]2O[C@@H]2O[C@@H](CO)[C@H](O)[C@@H](O)[C@@H]2NC)[C@@H](N/C(N)=N\[H])[C@@H]1O [Streptomycin, reference compound]",0.25,64,,,,,activity in words [4]: poor activity
Cn1c(=O)c2[nH]cnc2n(C)c1=O [Theophylline],,,,,,,"CHIC18 [2, 11]: 18,4"
CCCCC(=O)c1ccccc1 [Valerophenone],,,,,,,"CHIIAM [1, 10]: 37.3; CHIC18 [2, 11]: 96,2"
